Data taken from patent publication US20070004660A1, “Synergistic Modulation of Flt3 Kinase Using Alkylquinolines and Alkylquinazolines” (priority 2005, published 2007).

Target: T1, isolated kinase domain of the human FLT3 receptor (a.a. 571-993) (Homo sapiens, UniProt P36888)
T1 construct: human FLT3 receptor (a.a. 571-993)
T1 sequence (P36888 571-993): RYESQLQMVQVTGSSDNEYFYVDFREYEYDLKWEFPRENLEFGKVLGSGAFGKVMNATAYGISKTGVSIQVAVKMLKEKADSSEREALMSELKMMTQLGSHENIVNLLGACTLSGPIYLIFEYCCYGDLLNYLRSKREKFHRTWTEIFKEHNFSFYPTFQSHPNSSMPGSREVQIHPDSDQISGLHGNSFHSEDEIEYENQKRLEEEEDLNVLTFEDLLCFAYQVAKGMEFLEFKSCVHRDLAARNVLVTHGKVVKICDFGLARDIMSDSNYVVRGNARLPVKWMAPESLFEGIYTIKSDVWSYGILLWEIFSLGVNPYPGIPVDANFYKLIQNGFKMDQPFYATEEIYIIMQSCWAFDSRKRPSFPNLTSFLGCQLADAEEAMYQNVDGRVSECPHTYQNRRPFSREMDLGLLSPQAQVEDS
Test: FLT3 fluorescence polarization kinase assay
Type: biochemical
Details: 150 uM ATP; uncertainty ±10%

Compound | IC50 [nM]
O=C1CCCN1CCOc1cc2ncnc(C3CCN(C(=O)Nc4ccc(N5CCCC5)cc4)CC3)c2cc1F [Compound 206, 4-{6-Fluoro-7-[2-(2-oxo-pyrrolidin-1-yl)-ethoxy]-quinazolin-4-yl}-piperidine-1-carboxylic acid (4-pyrrolidin-1-yl-phenyl)-amide] | 28
COc1cc2c(C3CCN(C(=O)Nc4ccc(N5CCOCC5)cc4)CC3)ncnc2cc1OCCCN1CCN(C)CC1 [Compound 207, 4-{6-Methoxy-7-[3-(4-methyl-piperazin-1-yl)-propoxy]-quinazolin-4-yl}-piperidine-1-carboxylic acid (4-morpholin-4-yl-phenyl)-amide] | 29
COc1cc2c(C3CCN(C(=O)Nc4ccc(N5CCCC5)cc4)CC3)ncnc2cc1OCCN1CCCC1=O [Compound 209, 4-{6-Methoxy-7-[2-(2-oxo-pyrrolidin-1-yl)-ethoxy]-quinazolin-4-yl}-piperidine-1-carboxylic acid (4-pyrrolidin-1-yl-phenyl)-amide] | 17
O=C(Nc1ccc(N2CCCC2)cc1)N1CCC(c2ncnc3cc(N4CCOCC4)c(F)cc23)CC1 [Compound 210, 4-(6-Fluoro-7-morpholin-4-yl-quinazolin-4-yl)-piperidine-1-carboxylic acid (4-pyrrolidin-1-yl-phenyl)-amide] | 21
COc1cc2c(C3CCN(C(=O)Nc4ccc(N5CCCC5)cc4)CC3)ncnc2cc1N1CCOCC1 [Compound 211, 4-(6-Methoxy-7-morpholin-4-yl-quinazolin-4-yl)-piperidine-1-carboxylic acid (4-pyrrolidin-1-yl-phenyl)-amide] | 8
COc1cc2c(C3CCN(C(=O)Nc4ccc(N5CCOCC5)cc4)CC3)ncnc2cc1N1CCOCC1 [Compound 212, 4-(6-Methoxy-7-morpholin-4-yl-quinazolin-4-yl)-piperidine-1-carboxylic acid (4-morpholin-4-yl-phenyl)-amide] | 239
COc1cc2ncnc(C3CCN(C(=O)Nc4ccc(I)cc4)CC3)c2cc1OC [Example 2, 4-(6,7-Dimethoxy-quinazolin-4-yl)-piperidine-1-carboxylic acid (4-iodo-phenyl)-amide] | 210
COc1cc2ncnc(C3CCN(C(=O)Nc4ccc(-n5ccnc5)cc4)CC3)c2cc1OC [Example 3, 4-(6,7-Dimethoxy-quinazolin-4-yl)-piperidine-1-carboxylic acid (4-imidazol-1-yl-phenyl)-amide] | 3900
COc1cc2ncnc(C3CCN(C(=O)Nc4ccc(NC(C)=O)cc4)CC3)c2cc1OC [Example 25, 4-(6,7-Dimethoxy-quinazolin-4-yl)-piperidine-1-carboxylic acid (4-acetylamino-phenyl)-amide] | 6100
COc1cc2ncnc(C3CCN(C(=O)Nc4ccc(N(C)C)cc4)CC3)c2cc1OC [Example 26, 4-(6,7-Dimethoxy-quinazolin-4-yl)-piperidine-1-carboxylic acid (4-dimethylamino-phenyl)-amide] | 200
COc1cc2ncnc(C3CCN(C(=O)Cc4ccc(C(C)C)cc4)CC3)c2cc1OC [Example 28, 1-[4-(6,7-Dimethoxy-quinazolin-4-yl)-piperidin-1-yl]-2-(4-isopropyl-phenyl)-ethanone] | 8
CC(C)Oc1ccc(NC(=O)N2CCC(c3ncnc4cc(Cl)ccc34)CC2)cc1 [Example 29, 4-(7-Chloro-quinazolin-4-yl)-piperidine-1-carboxylic acid (4-isopropoxy-phenyl)-amide] | 150
CC(C)c1ccc(NC(=O)N2CCC(c3ncnc4cc(Cl)ccc34)CC2)cc1 [Example 30, 4-(7-Chloro-quinazolin-4-yl)-piperidine-1-carboxylic acid (4-isopropyl-phenyl)-amide] | 35
COc1ccc2c(C3CCN(C(=O)Nc4ccc(OC(C)C)cc4)CC3)ncnc2c1 [Example 31, 4-(7-Methoxy-quinazolin-4-yl)-piperidine-1-carboxylic acid (4-isopropoxy-phenyl)-amide] | 21
COc1ccc2c(C3CCN(C(=O)Nc4ccc(C(C)C)cc4)CC3)ncnc2c1 [Example 32, 4-(7-Methoxy-quinazolin-4-yl)-piperidine-1-carboxylic acid (4-isopropyl-phenyl)-amide] | 11
CC(C)Oc1ccc(NC(=O)N2CCC(c3ncnc4cc(OCCCN5CCCCC5)ccc34)CC2)cc1 [Example 33, 4-(7-(3-Piperidin-1-yl-propoxy)-quinazolin-4-yl)-piperidine-1-carboxylic acid (4-isopropoxy-phenyl)-amide] | 11
CC(C)Oc1ccc(NC(=O)N2CCC(c3ncnc4cc(OCCN5CCCCC5)ccc34)CC2)cc1 [Example 34, 4-(7-(2-Piperindin-1-yl-ethoxy)-quinazolin-4-yl)-piperidine-1-carboxylic acid (4-isopropoxy-phenyl)-amide] | 49
CCN(CC)CCOc1ccc2c(C3CCN(C(=O)Nc4ccc(OC(C)C)cc4)CC3)ncnc2c1 [Example 35, 4-[7-(2-Diethylamino-ethoxy)-quinazolin-4-yl)-piperidine-1-carboxylic acid (4-isopropoxy-phenyl)-amide] | 47
CCN(CC)CCCOc1ccc2c(C3CCN(C(=O)Nc4ccc(OC(C)C)cc4)CC3)ncnc2c1 [Example 36, 4-[7-(3-Diethylamino-propoxy)-quinazolin-4-yl)-piperidine-1-carboxylic acid (4-isopropoxy-phenyl)-amide] | 18
CC(C)Oc1ccc(NC(=O)N2CCC(c3ncnc4cc(OCCN5CCOCC5)ccc34)CC2)cc1 [Example 37] | 7
CC(C)Oc1ccc(NC(=O)N2CCC(c3ncnc4cc(OCCCN5CCOCC5)ccc34)CC2)cc1 [Example 38] | 6
CC(C)Oc1ccc(NC(=O)N2CCC(c3ncnc4cc(OCCCN5CCN(C)CC5)ccc34)CC2)cc1 [Example 39] | 15
COCCOc1ccc(NC(=O)N2CCC(c3ncnc4cc(OC)c(OC)cc34)CC2)cc1 [Example 40, 4-(6,7-Dimethoxy-quinazolin-4-yl)-piperidine-1-carboxylic acid [4-(2-methoxy-ethoxy)-phenyl]-amide] | 910
